# Laboratory results taken from patent US4812465A, “Triazole derivatives for use as antimycotic agents” (CL Pharma Aktiengesellschaft, priority 1986, dated 1989).
# Tests used:
# Absidia ramosa = test: In vitro determination of minimum inhibitory concentration (MIC), serial dilution; type: cell-based; conditions: pH 6.0, 22° C., 14 days; for MIC: Lichtheimia ramosa, 336 h, pH 6, Absidia ramosa
# Description: (§1) The antimycotic activities of the compounds were measured by in vitro determination of the minimum inhibitory concentration (MIC) for yeasts, molds and dermatophytes.
# (§2) 6 dermatophytes, 2 yeasts and 4 molds were used for testing with fungi, as follows:
# (§3) The minimum inhibitory concentration (MIC) was determined in serial dilution tests in test tubes. The volume of the liquid nutrient medium in each test tube was 4.5 ml.
# (§4) The substances were dissolved in DMSO and diluted with sterile distilled water to 10 concentrations (100, 50, 25, 12.5, 6.25, 3.12, 1.56, 0.78, 0.39 and 0.19 μg/ml). 0.5 ml of each of these dilution steps was added to liquid nutrient medium. Thus, a constant concentration of solvent in all the nutrient media was ensured, irrespective of the active compound concentration.
# (§5) A comparison solution which contained only the solvent in appropriate concentration was included when carrying out each of the tests.
# (§6) The individual strains were maintained on Sabouraud/beerwort agar slants and, before they were used in a test, they underwent a passage on a modified Sabouraud liquid nutrient medium. The strains were then harvested, washed and converted into a suspension of McFaerland 3 in the case of yeasts and molds and of McFaerland 4-5 in the case of dermatophytes.
# (§7) The amount of material inoculated (inoculum) was 100 μl/test tube (inoculated densities: yeasts about 10^3 /ml, molds about 10^4 /ml, dermatophytes about 10^4 /ml). The pH of the liquid nutrient medium was 6.0. After inoculation had taken place the fungi were incubated at 22° C. for 14 days.
# (§8) The MIC was then determined. The concentration step at which growth was no longer visible on macroscopic inspection was used for the determination of the MIC. The comparison substance used was 1-(2-(2,4-dichlorophenyl)-2-(2,4-dichlorophenylmethoxy)ethyl)-1H-imidazole(compound A).
# Aspergillus fumigatus = test: as above; type: cell-based; conditions: 20160 min, pH 6
# Description: as §1, §2, §3, §4, §5, §6, §7, §8
# Candida albicans = test: as above; type: cell-based; conditions: 336 h, pH 6, Candida albicans, pH 6.0, 22° C., 14 days, read-out: MIC C.alb
# Description: as §1, §2, §3, §4, §5, §6, §7, §8
# Candida tropicalis = test: as above; type: cell-based; conditions: 336 h, pH 6, Candida tropicalis, pH 6.0, 22° C., 14 days, read-out: MIC C.trop
# Description: as §1, §2, §3, §4, §5, §6, §7, §8
# Epidermophyton floccosum = test: as above; type: cell-based; conditions: pH 6.0, 22° C., 14 days; for MIC: 336 h, pH 6, Epidermophyton floccosum
# Description: as §1, §2, §3, §4, §5, §6, §7, §8
# Microsporum canis = test: as above; type: cell-based; conditions: 336 h, pH 6, Microsporum canis, pH 6.0, 22° C., 14 days
# Description: as §1, §2, §3, §4, §5, §6, §7, §8
# Microsporum gypseum = test: as above; type: cell-based; conditions: Nannizzia gypsea, 336 h, pH 6, Microsporum gypseum; pH 6.0, 22° C., 14 days; read-out: MIC Mi.gyp
# Description: as §1, §2, §3, §4, §5, §6, §7, §8
# Mucor mucedo minus = test: as above; type: cell-based; conditions: pH 6.0, 22° C., 14 days; for MIC: Mucor mucedo, 336 h, pH 6, Mucor mucedo minus
# Description: as §1, §2, §3, §4, §5, §6, §7, §8
# Mucor mucedo plus = test: as above; type: cell-based; conditions: pH 6.0, 22° C., 14 days; for MIC: Mucor mucedo, 336 h, pH 6, Mucor mucedo plus
# Description: as §1, §2, §3, §4, §5, §6, §7, §8
# [1] = tested on: Trichophyton mentagrophytes; test: as above; type: cell-based; conditions: pH 6.0, 22° C., 14 days; for MIC: 336 h, pH 6, Trichophyton mentagrophytes
# Description: as §1, §2, §3, §4, §5, §6, §7, §8
# Trichophyton rubrum = test: as above; type: cell-based; conditions: pH 6.0, 22° C., 14 days; for MIC: 336 h, pH 6, Trichophyton rubrum
# Description: as §1, §2, §3, §4, §5, §6, §7, §8
# Trichophyton verrucosum = test: as above; type: cell-based; conditions: pH 6.0, 22° C., 14 days; for MIC: 336 h, pH 6, Trichophyton verrucosum
# Description: as §1, §2, §3, §4, §5, §6, §7, §8
# mice [2] = test: Determination of the lethal dose on single oral administration; type: in vivo; conditions: for LD100: oral, once
# Description: (§9) Determination of the lethal dose of 1-(2-(2,4-dichlorophenyl)-2-(3-(4-chlorophenylthio)propylamino)ethyl)-1H-imidazole dihydrochloride (compound No. 96) in mice and rats on administration once.
# (§10) In each case, oral doses of 0, 500, 1,000 and 3,000 mg/kg of body weight were administered to four groups of female and male animals.
# (§11) (Control: double-distilled water)
# (§12) The following clinical signs were observed.
# rats [3] = test: as above; type: in vivo; conditions: for LD100: oral, once
# Description: as §9, §10, §11, §12
# [4] = Determination of the LD50 by i.v. administration; type: in vivo; conditions: in vivo, iv
# Description: (§13) Determination of the LD50 of 1-(2-(2,4-dichlorophenyl)-2-(3-(4-chlorophenylthio)propylamino)ethyl)-1H-imidazole dihydrochloride (compound No. 96) in mice and rats by i.v. administration. In each case, 0 (0.9% NaCl solution), 12.5, 25.0, 50.0 and 100 mg/kg of body weight were injected i.v. into 5 groups of female and male animals.
# as §12
# mice [5] = test: Determination of the LD50 by i.v. administration; type: in vivo; conditions: i.v. 12.5-100 mg/kg
# Description: as §13, §12
# rats [6] = test: Determination of the LD50 by i.v. administration; type: in vivo; conditions: i.v. 12.5-100 mg/kg
# Description: as §13, §12
# [7] = tested on: Salmonella typhimurium strains TA 1535, TA 1537, TA 1538, TA 98 and TA 100; test: Potential to cause gene mutations in Salmonella typhimurium; type: cell-based; conditions: 3.3-1,000 μg/plate
# Description: Compound No. 96 was investigated for its potential to cause gene mutations in five Salmonella typhimurium strains TA 1535, TA 1537, TA 1538, TA 98 and TA 100.
# The following concentrations were tested, both with metabolic activator (S 9 mix) and without metabolic activator.
# [8] = oral 0, 500, 1,000 and 3,000 mg/kg
Compound,MIC (Absidia ramosa) [µg/mL],MIC Asp.fu. (Aspergillus fumigatus),MIC (Candida albicans) [µg/mL],MIC (Candida tropicalis) [µg/mL],MIC (Epidermophyton floccosum) [µg/mL],MIC (Microsporum canis) [µg/mL],MIC (Microsporum gypseum) [µg/mL],MIC (Mucor mucedo minus) [µg/mL],MIC (Mucor mucedo plus) [µg/mL],MIC [1] [µg/mL],MIC (Trichophyton rubrum) [µg/mL],MIC (Trichophyton verrucosum) [µg/mL],further results
"Cl.Cl.Clc1ccc(SCCCNC(Cn2ccnc2)c2ccc(Cl)cc2Cl)cc1 (centres unmarked) [Compound 96, 1-(2-(2,4-dichlorophenyl)-2-(3-(4-chlorophenylthio)propylamino)ethyl)-1H-imidazole dihydrochloride]",1.56,"0,78 μg/ml",0.39,0.78,0.19,0.39,0.39,1.56,1.56,0.39,0.19,0.39,"LD100 (mice [2]; female): > 1,000 mg/kg; LD100 (mice [2]; male): > 500 mg/kg; clinical signs (mice [2]; [8]): Inactivity, convulsions; LD100 (rats [3]; female): > 500 mg/kg; LD100 (rats [3]; male): > 1,000 mg/kg; clinical signs (rats [3]; [8]): Inactivity, ruffled fur, convulsions; LD50 ([4]; mouse, mice, female, range in parentheses): 84.1 mg/kg; LD50 ([4]; mouse, mice, male, range in parentheses): 42 mg/kg; LD50 ([4]; rat, rats, female, range in parentheses): 56.1 mg/kg; LD50 ([4]; rat, rats, male): 70.7 mg/kg; clinical signs (mice [5]): Inactivity, necrotic tail; clinical signs (rats [6]): Inactivity, necrotic tail, convulsions; mutagenic activity ([7]; with metabolic activator (S 9 mix)): No mutagenic activity whatever was observed; mutagenic activity ([7]; without metabolic activator): No mutagenic activity whatever was observed"
Clc1ccc(C(Cn2ccnc2)NCCCSc2ccc(Br)cc2)c(Cl)c1 (centres unmarked) [Compound 105],,"0,39 μg/ml",3.12,3.12,,0.78,0.39,,,,,,"MIC Abs.ra. (Absidia ramosa; Absidia ramosa): 12,5 μg/ml; MIC Ep.flo (Epidermophyton floccosum): 0,10 μg/ml; MIC Mu.mu- (Mucor mucedo minus; Mucor mucedo minus): 3,12 μg/ml; MIC Mu.mu+ (Mucor mucedo plus; Mucor mucedo plus): 3,12 μg/ml; MIC Tri.me. [1]: 0,10 μg/ml; MIC Tri.ru. (Trichophyton rubrum): 0,10 μg/ml; MIC Tri.ve. (Trichophyton verrucosum): 0,10 μg/ml"
Clc1ccc(SCCCCCNC(Cn2ccnc2)c2ccc(Cl)cc2Cl)cc1 (centres unmarked) [Compound 132],6.25,"6,25 μg/ml",6.25,3.12,0.78,12.5,3.12,3.12,0.78,0.78,3.12,6.25,
Clc1ccc(C(Cn2cncn2)NCCCOc2c(Cl)cccc2Cl)c(Cl)c1 (centres unmarked) [Compound 72],100,"3,12 μg/ml",3.12,3.12,6.25,25,6.25,6.25,6.25,25,3.12,1.56,
